For this test, the target named is T1, Multidrug resistance protein 4 (MRP4/ABCC4) (Homo sapiens, UniProt O15439).
T1 construct: recombinant human MRP4-his6 in Sf9 membrane vesicles
T1 sequence (O15439 1-1325): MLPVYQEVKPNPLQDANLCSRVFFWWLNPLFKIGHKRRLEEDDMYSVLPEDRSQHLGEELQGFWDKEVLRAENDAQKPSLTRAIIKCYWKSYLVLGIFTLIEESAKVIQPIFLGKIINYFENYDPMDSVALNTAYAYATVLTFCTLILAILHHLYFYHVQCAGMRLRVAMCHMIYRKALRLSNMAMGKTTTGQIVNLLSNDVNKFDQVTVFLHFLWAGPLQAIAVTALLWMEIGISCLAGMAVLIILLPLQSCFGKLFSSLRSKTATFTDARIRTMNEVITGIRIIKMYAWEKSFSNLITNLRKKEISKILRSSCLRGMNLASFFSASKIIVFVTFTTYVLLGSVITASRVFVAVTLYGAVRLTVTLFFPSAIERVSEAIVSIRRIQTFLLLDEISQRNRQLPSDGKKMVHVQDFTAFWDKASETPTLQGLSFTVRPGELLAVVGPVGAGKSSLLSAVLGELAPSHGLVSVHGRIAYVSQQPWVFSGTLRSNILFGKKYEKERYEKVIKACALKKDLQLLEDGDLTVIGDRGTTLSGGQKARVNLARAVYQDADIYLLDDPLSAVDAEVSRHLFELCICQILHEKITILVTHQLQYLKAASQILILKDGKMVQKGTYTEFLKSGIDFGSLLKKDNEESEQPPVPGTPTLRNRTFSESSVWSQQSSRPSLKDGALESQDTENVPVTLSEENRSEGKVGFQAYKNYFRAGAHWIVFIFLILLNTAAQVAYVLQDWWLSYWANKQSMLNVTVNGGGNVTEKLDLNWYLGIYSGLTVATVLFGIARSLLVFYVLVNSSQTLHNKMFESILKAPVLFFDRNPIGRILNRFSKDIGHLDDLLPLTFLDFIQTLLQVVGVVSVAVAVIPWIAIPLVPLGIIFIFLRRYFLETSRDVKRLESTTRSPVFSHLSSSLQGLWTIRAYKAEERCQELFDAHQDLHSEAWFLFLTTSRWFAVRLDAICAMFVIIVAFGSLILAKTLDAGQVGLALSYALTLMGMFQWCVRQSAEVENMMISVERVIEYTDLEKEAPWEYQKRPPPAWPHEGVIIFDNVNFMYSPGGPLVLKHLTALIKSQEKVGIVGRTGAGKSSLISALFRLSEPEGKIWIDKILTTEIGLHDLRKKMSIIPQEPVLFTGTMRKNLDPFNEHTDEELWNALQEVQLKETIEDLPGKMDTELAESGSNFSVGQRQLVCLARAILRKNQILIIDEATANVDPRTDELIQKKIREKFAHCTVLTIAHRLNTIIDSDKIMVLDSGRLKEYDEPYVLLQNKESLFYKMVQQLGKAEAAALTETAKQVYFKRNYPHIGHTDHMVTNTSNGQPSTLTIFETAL
The experiment in a line: fluorescent vesicular transport assay, ATP-dependent uptake in Sf9 MRP4 membrane vesicles against control vesicles (Km). The class given is biochemical.

One may read the Km as the substrate concentration at which the rate is half of its maximum.

On to “8-(2-[fluoresceinyl]aminoethylthio)adenosine-3′,5′-cyclic monophosphate [fluo-cAMP]”, for which the Km was determined as 5.8 µM.

(Values after article PMC6873218, “Functional Expression of Multidrug Resistance Protein 4 MRP4/ABCC4” (Slas Discovery, 2019).)
